Reference: ChEMBL document CHEMBL1158267, “Lycaconitine revisited: partial synthesis and neuronal nicotinic acetylcholine receptor affinities” (J Nat Prod, 1996)

Tests used:
[1] = target: Neuronal acetylcholine receptor; alpha4/beta2 (Rattus norvegicus, UniProt P09483+P12390); experiment: Displacement of [3H]cytisine from alpha4beta2 nAChR in rat brain membrane; assay type: cell membranes
[2] = target: Neuronal acetylcholine receptor subunit alpha-7 (Rattus norvegicus, UniProt Q05941); experiment: Displacement of [125I]alpha-bungarotoxin from alpha7 nAChR in rat brain membrane; assay type: cell membranes
[3] = Toxicity in iv dosed mouse; assay type: organism-based; settings: in vivo

Sequence of Neuronal acetylcholine receptor; alpha4/beta2 (P09483 whole entry): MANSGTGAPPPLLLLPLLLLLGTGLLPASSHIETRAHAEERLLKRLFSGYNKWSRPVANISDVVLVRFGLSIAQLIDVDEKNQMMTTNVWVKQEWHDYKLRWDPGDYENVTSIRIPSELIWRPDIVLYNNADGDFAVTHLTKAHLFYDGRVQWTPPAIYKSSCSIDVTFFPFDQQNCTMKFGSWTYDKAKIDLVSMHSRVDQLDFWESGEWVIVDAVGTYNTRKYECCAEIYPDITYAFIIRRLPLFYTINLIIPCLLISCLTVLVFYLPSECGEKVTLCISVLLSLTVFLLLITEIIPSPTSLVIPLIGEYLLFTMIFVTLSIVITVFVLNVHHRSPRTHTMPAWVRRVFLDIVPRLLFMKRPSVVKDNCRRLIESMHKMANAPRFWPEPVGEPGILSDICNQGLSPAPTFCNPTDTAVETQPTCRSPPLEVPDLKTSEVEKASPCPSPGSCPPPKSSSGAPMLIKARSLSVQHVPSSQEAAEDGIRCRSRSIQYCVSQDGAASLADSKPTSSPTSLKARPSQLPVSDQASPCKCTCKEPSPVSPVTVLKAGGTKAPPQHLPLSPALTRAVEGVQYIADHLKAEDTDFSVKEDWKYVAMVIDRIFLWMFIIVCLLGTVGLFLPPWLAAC
Sequence of Neuronal acetylcholine receptor; alpha4/beta2 (P12390 whole entry): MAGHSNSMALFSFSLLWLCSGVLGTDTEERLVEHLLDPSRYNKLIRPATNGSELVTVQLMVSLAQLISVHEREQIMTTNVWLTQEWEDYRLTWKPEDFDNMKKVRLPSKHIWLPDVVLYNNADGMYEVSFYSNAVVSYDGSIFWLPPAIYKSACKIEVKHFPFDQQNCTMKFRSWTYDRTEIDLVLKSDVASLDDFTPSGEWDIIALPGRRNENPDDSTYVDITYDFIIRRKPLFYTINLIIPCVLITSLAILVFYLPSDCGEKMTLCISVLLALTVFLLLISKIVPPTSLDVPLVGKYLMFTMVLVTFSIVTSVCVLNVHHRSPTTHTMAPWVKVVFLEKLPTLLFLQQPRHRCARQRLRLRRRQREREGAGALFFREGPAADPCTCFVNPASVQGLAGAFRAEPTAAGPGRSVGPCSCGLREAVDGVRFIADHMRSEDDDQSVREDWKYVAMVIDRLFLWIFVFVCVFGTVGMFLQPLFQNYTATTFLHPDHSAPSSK
Sequence of Neuronal acetylcholine receptor subunit alpha-7 (Q05941 whole entry): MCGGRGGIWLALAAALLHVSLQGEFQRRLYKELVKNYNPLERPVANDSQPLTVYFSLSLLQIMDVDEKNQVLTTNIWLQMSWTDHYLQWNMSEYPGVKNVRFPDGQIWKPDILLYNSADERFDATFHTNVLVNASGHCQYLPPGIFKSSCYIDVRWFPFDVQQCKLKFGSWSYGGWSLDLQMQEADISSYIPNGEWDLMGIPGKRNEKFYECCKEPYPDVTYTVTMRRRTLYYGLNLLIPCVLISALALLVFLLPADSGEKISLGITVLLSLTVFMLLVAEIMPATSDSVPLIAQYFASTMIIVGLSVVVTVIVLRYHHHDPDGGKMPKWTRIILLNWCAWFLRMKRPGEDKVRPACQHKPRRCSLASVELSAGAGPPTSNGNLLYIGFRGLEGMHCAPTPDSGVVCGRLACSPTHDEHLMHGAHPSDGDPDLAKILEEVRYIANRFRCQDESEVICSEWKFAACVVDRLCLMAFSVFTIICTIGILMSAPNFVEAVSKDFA

SMILES | Ki [1] [nM] | Ki [2] [nM] | LD50 [3] [mg/kg]
CCN1C[C@]2(COC(=O)c3ccccc3N3C(=O)CCC3=O)CC[C@H](OC)[C@]34C1[C@](O)([C@@H](OC)[C@H]23)[C@@]1(O)C[C@H](OC)[C@H]2C[C@@H]4[C@@H]1[C@H]2OC [LYCACONITINE] | 1000 | 80 | 15
CCN1C[C@]2(COC(=O)c3ccccc3N3C(=O)C[C@H](C)C3=O)CC[C@H](OC)[C@@]34[C@@H]5C[C@H]6[C@H](OC)[C@@H]5[C@](O)(C[C@@H]6OC)[C@](O)([C@@H](OC)[C@H]23)[C@@H]14 [METHYLLYCACONITINE] |  |  | 3
